The nature of data set [1]: Bioavailability of nasal administration in beagle dogs (chlorogenic acid content in blood). Format: in vivo. The note with it: male, dog, serum, other: nasal administration, 4 mg/kg chlorogenic acid. The procedure: • Six male beagle dogs, weighing 10-13 kg.
Six beagle dogs were randomly divided into groups and cross-administered with one week interval.
After fasting for 12 h, test animals were given chlorogenic acid, nasal powder, and aerosol at a dose of 4 mg/kg chlorogenic acid by nasal administration, and one additional dog was injected intravenously with chlorogenic acid at 4 mg/kg. 3 h after administration, dogs were allowed to feed;
10 min, 30 min, 60 min, 90 min, 120 min, 150 min after administration of beagle dogs, 3 mL intravenous blood was collected, heparin was used to anticoagulate, and then 1 mL serum was separated by centrifugation, and stored in a refrigerator at −20° C.
To 100 μL serum, were added methanol-0.2% phosphoric acid (80:20) solution (100 μL), the solution of puerarin in methanol as internal standard (50 mg/mL, 100 μL), and 100 μL methanol. The resultant solution was vortexed for 3 min, allowed to stand, and centrifuged (12000 rpm) for 10 min. The supernatant was collected as the serum test solution.
(§1) Octadecylsilane-bonded silica gel column (150 mm×4.6 mm, 5 μm) and guard column were used; mobile phase A (methanol) and mobile phase B (0.2% phosphoric acid) were used to perform desorption according to a gradient elution procedure; the detection wavelength was 325 nm; the flow rate was 1 mL/min; the column temperature was 40° C.
20 μL of the serum test solution was accurately measured, and injected into the liquid chromatograph, to record the chromatogram. The internal standard method was used to calculate the content of chlorogenic acid in serum with accompanying standard curve.

Data set [2] can be described thus: Blood-brain barrier permeability in rats after nasal administration (chlorogenic acid content in brain tissue). The note with it: SD, rat, other: nasal administration, 20 mg/kg chlorogenic acid. Format: in vivo. The procedure: 150 SD rats, half male and half […], weighing 180-220 g.
SD rats were randomly divided into 5 groups, 30 rats for each group, and each test drug was administrated nasally at a dose of 20 mg/kg chlorogenic acid. The tissue samples were collected at 10 min, 30 min, 60 min, 90 min, 120 min, and 150 min after administration.
After administration, each experimental group was intraperitoneally injected with 1% pentobarbital sodium (0.2 mL) for deep anesthesia according to the time point, and then a needle was inserted from the left ventricle. The right ventricle was cut, and physiological saline was injected with a syringe for cardiac perfusion until the liver and spleen turned gray, and the brain tissue was taken out.
The brain tissue was placed in a homogenizer, to which was added 0.9% sodium chloride injection according to brain tissue: normal saline=1:1 (w/v) and then homogenized. To 200 μL homogenate, were added 50 mg/mL puerarin internal standard solution (200 μL) and methanol (200 μL), and then the mixture was vortexed and centrifuged. The supernatant was collected as the brain tissue test solution.
as §1
20 μL of the brain tissue test solution was accurately measured, and injected into the liquid chromatograph, to record the chromatogram. The internal standard method was used to calculate the content of chlorogenic acid in […] with accompanying standard curve.

Another data set relates to nasopharyngeal carcinoma. Put plainly: Inhibitory effect on nasopharyngeal carcinoma in rats: nasopharyngeal tissue paraffin microscopy. Format: in vivo, SD rats. The note with it: nasal administration, 20 mg/kg chlorogenic acid once a day, 5 rats per group, dinitrosopiperazine/phorbol ester induced, 20th week. The text has this: 1.1.3 Positive Control Drug: Retinoic Acid
SD rats, half male and half […], weighing 180-220 g.
(§2) SD rats were randomly divided into 8 groups, 5 rats for each group, and the groups included nasal administration groups: chlorogenic acid bulk drug group, the nasal powder group of example 1, the nasal powder group of example 5, the aerosol group of example 6, and the aerosol group of example 7; intraperitoneal injection group of chlorogenic acid, positive control drug group, and blank group. Amongst, for nasal administration, each test drug group received corresponding drugs at a dose of 20 mg/kg chlorogenic acid daily, once a day; intraperitoneal injection group of chlorogenic acid was administrated at a dose of 20 mg/kg chlorogenic acid daily, once a day; retinoic acid positive drug group was administered intragastrically at a dose of 90 mg/kg daily, once a day. Rats in each experimental group were given dinitrosopiperazine and phorbol ester to promote cancer. Dinitrosopiperazine was injected into the armpit at a dose of 40 mg/kg to induce carcinogenesis, twice a week, for a total of 15 weeks. After dinitrosopiperazine was injected for two weeks, phorbol diester was injected at a dose of 50 ng/rat, twice a week, for a total of 15 weeks. The rats were sacrificed at the 20th week, rhinitis tissues were dissected, histopathology was observed, and telomerase was detected.
Rat nasopharyngeal tissues were fixed with 10% formaldehyde, decalcified in Jenkin's solution, further fixed in neutral formalin, and embedded in paraffin to make serial sections, then stained with hematoxylin and eosin and observed under a microscope.

The subject of another data set is telomerase. The experiment in a line: Telomerase detection in nasopharyngeal tissue of rats. Format: in vivo, SD rats. The note with it: rat nasopharyngeal tissue homogenate, Telomerase ELISA-PCR kit, 20th week. How it is done:
as §2, with “Dinitrosopiperazine was injected into the armpit at a dose of 40 mg/kg to induce carcinogenesis, twice a week, for a total of 15 weeks. After dinitrosopiperazine was injected for two weeks, phorbol diester was injected at a dose of 50 ng/rat, twice a week, for a total of 15 weeks.” left out
Nasopharyngeal tissue homogenate was weighed and centrifuged, and then the supernatant was collected and processed according to Telomerase ELISA-PCR kit instruction (Shanghai Boehringer Mannheim Co.). After obtaining PCR reaction product, the telomerase activity was quantitatively detected, followed by concentration and electrophoresis on polyacrylamide gel, then staining with silver nitrate.
In general terms: An ELISA detects its analyte on a solid surface through an enzyme-linked reagent.

A further data set relates to Rat C6 glioma cells. The experiment in a line: Inhibitory effect of nasal administration and intraperitoneal injection on glioma in rats. The note with it: rat C6 brain glioma; for Tumor size: imaging on 21st day. The class given is in vivo, SD rats. How it is done:
1.1.3 Positive Control Drug: Temozolomide
40 SD rats, half male and half […], weighing 180-220 g.
Rat C6 glioma cells were incubated in 10% calf serum DMEM complete culture medium, subcultured in a monolayer culture method and allowed to grow to the required number of cells, and then subcultured once before inoculation. Cells in logarithmic growth phase are collected, digested with trypsin, centrifuged, and made to 1×10^4/10 μL cell suspension with Hanks solution, then stored in a refrigerator at 4° C. for inoculation.
Rats were anesthetized by intraperitoneal injection of 10% chloral hydrate, and the hair on the top of the rat's head was cut off and disinfected with iodine. The scalp was cut to expose the skull, and an electronic dental drill was used to open the cranium 1 mm behind the coronal suture and 3 mm to the right of the sagittal suture. 10 μL C6 cell suspension was injected, the bone hole was sealed with bone wax, and the incision was sutured. 5 days after tumor inoculation, the rats were examined by imaging, and tumorigenic rats were selected.
The tumorigenic rats were randomly divided into 8 groups, 5 rats for each group, and the groups included nasal administration groups: chlorogenic acid bulk drug group, the nasal powder group of example 1, the nasal powder group of example 5, the aerosol group of example 6, and the aerosol group of example 7; intraperitoneal injection group of chlorogenic acid, temozolomide positive control drug group, and blank group. For nasal administration, each test drug group received corresponding drugs at a dose of 20 mg/kg chlorogenic acid daily; intraperitoneal injection group of chlorogenic acid was administrated at a dose of 20 mg/kg chlorogenic acid daily; temozolomide positive control group was administered intragastrically at a dose of 25 mg/kg daily. Each test group started to be given the drug on the 6th day after tumor inoculation for 20 consecutive days, and on the 21st day each drug group and the blank group were imaged to check the tumor size.
SPSS software was used to perform t test, analysis of variance and multiple comparisons test.
The post-processing platform was used to measure the tumor volume on the 3DFSPGR sequence, and the tumor inhibition rate was calculated.

Setting [3] is: 10 min after nasal administration.
[4] abbreviates: 30 min after nasal administration.
Where [5] appears, read: 60 min after nasal administration.
[6] abbreviates: 90 min after nasal administration.
The mark [7] stands for this setting: 120 min after nasal administration.
Setting [8] is: 150 min after nasal administration.
Setting [9] is: listed as chlorogenic acid raw material.
The mark [10] stands for this setting: nasal administration, 20 mg/kg chlorogenic acid daily for 20 days.
[11] abbreviates: intraperitoneal injection, 25 mg/kg daily for 20 days.

The results in this text go back to US11596598B2, “Chlorogenic acid-containing composition for nasal administration” (SICHUAN JIUZHANG BIOLOGICAL SCIENCE AND TECHNOLOGY CO., LTD, priority 2019, dated 2023).

Molecules are shown by their SMILES.

`O=C(/C=C/c1ccc(O)c(O)c1)O[C@@H]1C[C@](O)(C(=O)O)C[C@@H](O)[C@H]1O` [Chlorogenic acid bulk drug, Chlorogenic acid]: the concentration at 10 min in data set [1] (setting [3]) was 1020 ng/mL; in data set [2] (setting [3]), 0 ng/g. Moreover, the concentration at 30 min stood at 5740 ng/mL in data set [1] (setting [4]) and 320 ng/g in data set [2] (setting [4]). Besides, the concentration at 60 min came to 2200 ng/mL in data set [1] (setting [5]) and 860 ng/g in data set [2] (setting [5]). In addition, the values for the concentration at 90 min in data set [1] (setting [6]) and in data set [2] (setting [6]) were 980 ng/mL and 650 ng/g, respectively. Also, the concentration at 120 min turned out to be 520 ng/mL in data set [1] (setting [7]) and 320 ng/g in data set [2] (setting [7]). In addition, the concentration at 150 min is 220 ng/mL in data set [1] (setting [8]) and 130 ng/g in data set [2] (setting [8]). The “Dysplastic tissue (number of rats, nasopharyngeal tissue paraffin microscopy)” value in the data set with nasopharyngeal carcinoma was 3; in the data set with nasopharyngeal carcinoma (setting [9]), “three”. The “Normal tissue (number of rats, nasopharyngeal tissue paraffin microscopy)” value in the data set on nasopharyngeal carcinoma came to 1. The “Simple hyperplasia (number of rats, nasopharyngeal tissue paraffin microscopy)” value in the data set on nasopharyngeal carcinoma is on record as 1; in the data set on nasopharyngeal carcinoma (setting [9]), “one”. The telomerase activity with telomerase (nasal administration, 20 mg/kg chlorogenic acid once a day) was 0.56±0.17. In addition, in the data set with Rat C6 glioma cells (setting [10]), the Tumor inhibition rate is 22.35%. In the data set with Rat C6 glioma cells (setting [10]), this molecule registered a Tumor size of 48.35 ± 4.83 mm3.

In the data set with telomerase (intragastric administration, 90 mg/kg once a day), `CC1=C(/C=C/C(C)=C/C=C/C(C)=C/C(=O)O)C(C)(C)CCC1` [Retinoic acid] came in with a telomerase activity of 0.22±0.12.

In the data set on Rat C6 glioma cells (setting [11]), `Cn1nnc2c(C(N)=O)ncn2c1=O` [Temozolomide] showed a Tumor inhibition rate of 39.57% and a Tumor size of 37.63 ± 3.21 mm3.
